Test results: US11173446B2, “Process for removal of acid gases from a fluid stream” (BASF SE, priority 2017, dated 2021)

Assays:
[1] = Volatility of 30% by weight aqueous amine solutions (Example 4); assay type: physicochemical; settings: 30% by weight aqueous solutions, 50° C.
[2] = pKa of the amino groups by titration with hydrochloric acid (Example 5); assay type: physicochemical; settings: 20° C.
Text: An aqueous amine solution (0.005 mol/L) was titrated with hydrochloric acid (0.1 mol/L).

CC(C)(C)NCC(O)CO (centres unmarked) [TBAPD, 3-(tert-butylamino)propane-1,2-diol]
volatility, comparison in words [1]: lower volatility compared to the M3ETB, TBAEE and MDEA | pKA value, comparison in words [2]: greater than that of MDEA
